Assay results: US11718642B2, “Compositions and methods for treating CNS disorders” (Sage Therapeutics, Inc., priority 2018, dated 2023)
pIC50: −log10 of the molar value.

target: GABAA receptor; test: Steroid inhibition of [35S]-TBPS binding, rat brain cortical membranes; details: Table I-1, 3 nM [35S]-TBPS, in the presence of 5 mM GABA
Method: [^35S]-t-Butylbicyclophosphorothionate (TBPS) binding assays using rat brain cortical […] membranes in the presence of 5 mM GABA has been described (Gee et al, J. Pharmacol. Exp. Ther. 1987, 241, 346-353; Hawkinson et al, Mol. Pharmacol. 1994, 46, 977-985; Lewin, A. H et al., Mol. Pharmacol. 1989, 35, 189-194).
Briefly, cortices are rapidly removed following decapitation of carbon dioxide-anesthetized Sprague-Dawley rats (200-250 g). The cortices are homogenized in 10 volumes of ice-cold 0.32 M sucrose using a glass/teflon homogenizer and centrifuged at 1500×g for 10 min at 4° C. The resultant supernatants are centrifuged at 10,000×g for 20 min at 4° C. to obtain the P2 pellets. The P2 pellets are resuspended in 200 mM NaC/50 mM Na—K phosphate pH 7.4 buffer and centrifuged at 10,000×g for 10 min at 4° C. This washing procedure is repeated twice and the pellets are resuspended in 10 volumes of buffer. Aliquots ([…]) of the membrane suspensions are incubated with 3 nM [^35S]-TBPS and […] aliquots of test drug dissolved in dimethyl sulfoxide (DMSO) (final 0.5%) in the presence of 5 mM GABA. The incubation is brought to a final volume of 1.0 mL with buffer. Nonspecific binding is determined in the presence of […] unlabeled TBPS and ranged from 15 to 25%. Following a 90 min incubation at room temp, the assays are terminated by filtration through glass fiber filters (Schleicher and Schuell No. 32) using a cell harvester (Brandel) and rinsed three times with ice-cold buffer. Filter bound radioactivity is measured by liquid scintillation spectrometry. Non-linear curve fitting of the overall data for each drug averaged for each concentration is done using Prism (GraphPad). […] The concentration of test compound producing 50% inhibition (IC50) of specific binding and the maximal extent of inhibition (Imax) are determined for the individual experiments with the same model used for the overall data and then the means±SEM.s of the individual experiments are calculated.
Various compounds are or can be screened to determine their potential as modulators of [35S]-TBPS binding in vitro. These assays are or can be performed in accordance with the above.

SMILES | pIC50
CC(=O)[C@H]1CC[C@H]2[C@@H]3COC4C[C@](C)(O)CC[C@@H]4[C@H]3CC[C@]12C (stereo in doubt) [I-A15, 1-((1S,3aS,3bR,5aS,7R,9aR,9bS,11aS)-7-hydroxy-7,11a-dimethylhexadecahydroindeno[4,5-c]chromen-1-yl)ethan-1-one] | 5.00 to 6.00
C[C@@]1(O)CC[C@@H]2[C@H]3CC[C@]4(C)[C@@H](C(=O)Cn5cc(C#N)cn5)CC[C@H]4[C@@H]3CO[C@@H]2C1 [I-A17, 1-(2-((1S,3aS,3bR,5aS,7R,9aR,9bS,1aS)-7-hydroxy-7,11a-dimethylhexadecahydroindeno[4,5-c]chromen-1-yl)-2-oxoethyl)-1H-pyrazole-4-carbonitrile] | 5.00 to 6.00

same assay, conditions: Table II-2, 3 nM [35S]-TBPS, in the presence of 5 mM GABA

SMILES | pIC50
CC(=O)[C@H]1OC[C@H]2[C@@H]3CC[C@@H]4C[C@](C)(O)CC[C@@H]4[C@H]3CC[C@]12C [II-A11b, 1-((1S,3aS,3bR,5aR,7R,9aS,9bR,11aS)-7-hydroxy-7,11a-dimethylhexadecahydrophenanthro[1,2-c]furan-1-yl)ethan-1-one] | ≤ 5.00
C[C@@]1(O)CC[C@H]2[C@H](CC[C@@H]3[C@@H]2CC[C@]2(C)[C@@H](C(=O)Cn4cc(C#N)cn4)COC[C@@H]32)C1 [II-B14, 1-(2-((1R,4aS,4bR,6aR,8R,10aS,10bR,12aS)-8-hydroxy-8,12a-dimethylhexadecahydro-2H-naphtho[1,2-h]isochromen-1-yl)-2-oxoethyl)-1H-pyrazole-4-carbonitrile] | 6.00 to 7.00
C[C@@]1(O)CC[C@H]2[C@H](CC[C@@H]3[C@@H]2CC[C@]2(C)[C@@H](C(=O)Cn4cc(C#N)cn4)OC[C@@H]32)C1 [II-A13b, 1-(2-((1S,3aS,3bR,5aR,7R,9aS,9bR,11aS)-7-hydroxy-7,11a-dimethylhexadecahydrophenanthro[1,2-c]furan-1-yl)-2-oxoethyl)-1H-pyrazole-4-carbonitrile] | 5.00 to 6.00
CC(=O)[C@H]1COC[C@H]2[C@@H]3CC[C@@H]4C[C@](C)(O)CC[C@@H]4[C@H]3CC[C@]12C [II-B12, 1-((1R,4aS,4bR,6aR,8R,10aS,10bR,12aS)-8-hydroxy-8,12a-dimethylhexadecahydro-2H-naphtho[1,2-h]isochromen-1-yl)ethan-1-one] | 6.00 to 7.00
